The results in this text go back to ChEMBL document CHEMBL1275578, “Genotypic versus phenotypic characterization, with respect to beta-lactam susceptibility, of Haemophilus influenzae isolates exhibiting decreased susceptibility to beta-lactam resistance markers” (2009).

≈ marks a conversion by molar mass, not a printed value.

What all share (assay type): functional
Assay [1] deals with Haemophilus influenzae. Kind of assay: Antimicrobial activity against beta-lactamase negative, ampicillin-resistant Haemophilus influenzae expressing […] mutant gene by microdilution method in presence of beta-lactamase inhibitor clavulanic acid.
Assay [2] deals with Haemophilus influenzae. The assay is described as follows: Antimicrobial activity against beta-lactamase positive, ampicillin-clavulanic acid resistant Haemophilus influenzae expressing […] mutant gene by microdilution method in presence of beta-lactamase inhibitor clavulanic acid.
Assay [3] concerns Haemophilus influenzae. Kind of assay: Antimicrobial activity against beta-lactamase positive, ampicillin-clavulanic acid resistant Haemophilus influenzae expressing […] mutant gene assessed as resistant isolates by microdilution method in presence of beta-lactamase inhibitor clavulanic acid.
The test system of assay [4] is Haemophilus influenzae. The assay is described as follows: Antimicrobial activity against beta-lactamase negative, ampicillin-resistant Haemophilus influenzae expressing […] mutant gene assessed as resistant isolates by microdilution method in presence of beta-lactamase inhibitor clavulanic acid. On the technique in general: In broth dilution the organism is exposed to a series of concentrations in liquid medium.

Assay [5] deals with Haemophilus influenzae. The assay is described as follows: Antimicrobial activity against beta-lactamase negative Haemophilus influenzae expressing […] gene by microdilution method in presence of beta-lactamase inhibitor clavulanic acid.
The subject of assay [6] is Haemophilus influenzae. The assay is described as follows: Antimicrobial activity against beta-lactamase positive Haemophilus influenzae expressing […] gene assessed as resistant isolates by microdilution method in presence of beta-lactamase inhibitor clavulanic acid.
Assay [7] has as its system Haemophilus influenzae. Kind of assay: Antimicrobial activity against beta-lactamase positive Haemophilus influenzae expressing […] gene by microdilution method in presence of beta-lactamase inhibitor clavulanic acid.
For assay [8], the system named is Haemophilus influenzae. The assay is described as follows: Antimicrobial activity against beta-lactamase positive, ampicillin-clavulanic acid resistant Haemophilus influenzae expressing […] mutant gene assessed as resistant isolates by microdilution method.
Assay [9] has as its system Haemophilus influenzae. Kind of assay: Antimicrobial activity against beta-lactamase negative Haemophilus influenzae expressing […] gene by microdilution method.
In assay [10] the test system is Haemophilus influenzae. The assay is described as follows: Antimicrobial activity against beta-lactamase negative Haemophilus influenzae expressing […] gene assessed as resistant isolates by microdilution method.
Assay [11] deals with Haemophilus influenzae. Kind of assay: Antimicrobial activity against beta-lactamase negative, ampicillin-resistant Haemophilus influenzae expressing […] mutant gene assessed as resistant isolates by microdilution method.
The test system of assay [12] is Haemophilus influenzae. Kind of assay: Antimicrobial activity against beta-lactamase negative, ampicillin-resistant Haemophilus influenzae expressing […] mutant gene by microdilution method.
Assay [13] deals with Haemophilus influenzae. Kind of assay: Antimicrobial activity against beta-lactamase positive Haemophilus influenzae expressing […] gene by microdilution method.
In assay [14] the test system is Haemophilus influenzae. Kind of assay: Antimicrobial activity against beta-lactamase positive Haemophilus influenzae expressing […] gene assessed as resistant isolates by microdilution method.
Assay [15] has as its system Haemophilus influenzae. Kind of assay: Antimicrobial activity against beta-lactamase positive, ampicillin-clavulanic acid resistant Haemophilus influenzae expressing […] mutant gene by microdilution method.

Take `CC1(C)S[C@@H]2[C@H](NC(=O)[C@H](N)c3ccc(O)cc3)C(=O)N2[C@H]1C(=O)O` [AMOXICILLIN]: the MIC50 was determined as 2 µg/mL with Haemophilus influenzae [1], 4 µg/mL in the assay on Haemophilus influenzae [2], 0.5 µg/mL in the assay with Haemophilus influenzae [5] and 2 µg/mL in the assay on Haemophilus influenzae [7]. The MIC90 with Haemophilus influenzae [1] turned out to be 4 µg/mL; in the assay on Haemophilus influenzae [2], 8 µg/mL; in the assay with Haemophilus influenzae [5], 4 µg/mL; in the assay with Haemophilus influenzae [7] it was 4 µg/mL. The figures for the Activity with Haemophilus influenzae [3], in the assay with Haemophilus influenzae [4] and in the assay with Haemophilus influenzae [6] were 25%, 9.9% and 4.8%, respectively.

Consider `CC1(C)S[C@@H]2[C@H](NC(=O)[C@H](N)c3ccccc3)C(=O)N2[C@H]1C(=O)O` [AMPICILLIN], for which the Activity in the assay with Haemophilus influenzae [8] came to 95.5%; with Haemophilus influenzae [10], 30%; in the assay with Haemophilus influenzae [11], 98.3%; with Haemophilus influenzae [14] it was 100%. In addition, the MIC50 in the assay with Haemophilus influenzae [9] is 1 µg/mL (≈ 2.86 µM); against Haemophilus influenzae [12] it was 2 µg/mL (≈ 5.72 µM); in the assay on Haemophilus influenzae [13] it was ≥ 128 µg/mL. For the same compound, the results for the MIC90 against Haemophilus influenzae [9], against Haemophilus influenzae [12] and against Haemophilus influenzae [13] were 2 µg/mL (≈ 5.72 µM), 4 µg/mL (≈ 11.4 µM) and ≥ 128 µg/mL, respectively.

Take `N[C@@H](C(=O)N[C@@H]1C(=O)N2C(C(=O)O)=C(Cl)CS[C@H]12)c1ccccc1` [CEFACLOR ANHYDROUS]: the Activity in the assay on Haemophilus influenzae [8] is given as 86.4%; with Haemophilus influenzae [10] it was 40%; in the assay with Haemophilus influenzae [11], 70.2%; with Haemophilus influenzae [14], 76.2%. Moreover, the MIC50 was 32 µg/mL in the assay on Haemophilus influenzae [15], 8 µg/mL (≈ 21.8 µM) in the assay on Haemophilus influenzae [9], 32 µg/mL (≈ 87 µM) with Haemophilus influenzae [12] and 32 µg/mL (≈ 87 µM) against Haemophilus influenzae [13]. In addition, the MIC90 in the assay on Haemophilus influenzae [15] was 64 µg/mL; in the assay with Haemophilus influenzae [9], 32 µg/mL (≈ 87 µM); with Haemophilus influenzae [13] it was ≥ 128 µg/mL.

In the case of `C=CC1=C(C(=O)O)N2C(=O)[C@@H](NC(=O)/C(=N\O)c3csc(N)n3)[C@H]2SC1` [CEFDINIR], the Activity in the assay with Haemophilus influenzae [8] worked out at 52.3%; in the assay with Haemophilus influenzae [10], 40%; in the assay on Haemophilus influenzae [11], 57%; in the assay on Haemophilus influenzae [14], 33.3%. The MIC50 in the assay on Haemophilus influenzae [15] stood at 2 µg/mL; against Haemophilus influenzae [9], 1 µg/mL (≈ 2.53 µM); against Haemophilus influenzae [12], 2 µg/mL (≈ 5.06 µM); against Haemophilus influenzae [13], 0.5 µg/mL (≈ 1.26 µM). The MIC90 came out at 4 µg/mL in the assay with Haemophilus influenzae [15], 4 µg/mL (≈ 10.1 µM) in the assay on Haemophilus influenzae [9], 8 µg/mL (≈ 20.2 µM) in the assay on Haemophilus influenzae [12] and 4 µg/mL (≈ 10.1 µM) against Haemophilus influenzae [13].

On to `CO/N=C(\C(=O)N[C@@H]1C(=O)N2C(C(=O)OCOC(=O)C(C)(C)C)=C(/C=C\c3scnc3C)CS[C@H]12)c1csc(N)n1` [CEFDITOREN PIVOXIL], for which the MIC50 amounted to 0.03 µg/mL in the assay on Haemophilus influenzae [15], 0.03 µg/mL (≈ 0.0483 µM) against Haemophilus influenzae [9], 0.06 µg/mL (≈ 0.0967 µM) in the assay with Haemophilus influenzae [12] and 0.03 µg/mL (≈ 0.0483 µM) in the assay with Haemophilus influenzae [13]. Also, the MIC90 came out at 0.06 µg/mL in the assay with Haemophilus influenzae [15], 0.06 µg/mL (≈ 0.0967 µM) against Haemophilus influenzae [9], 0.06 µg/mL (≈ 0.0967 µM) with Haemophilus influenzae [12] and 0.06 µg/mL (≈ 0.0967 µM) in the assay on Haemophilus influenzae [13].

As to `CO/N=C(\C(=O)N[C@@H]1C(=O)N2C(C(=O)O)=C(COC(C)=O)CS[C@H]12)c1csc(N)n1` [CEFOTAXIME], the Activity in the assay on Haemophilus influenzae [8] is 0%; with Haemophilus influenzae [10] it was 0%; in the assay on Haemophilus influenzae [11] it was 0.8%; in the assay with Haemophilus influenzae [14] it was 0%. The MIC50 in the assay with Haemophilus influenzae [15] amounted to 0.03 µg/mL; with Haemophilus influenzae [9] it was 0.03 µg/mL (≈ 0.0659 µM); in the assay with Haemophilus influenzae [12], 0.06 µg/mL (≈ 0.132 µM); against Haemophilus influenzae [13] it was 0.03 µg/mL (≈ 0.0659 µM). The MIC90 worked out at 0.25 µg/mL with Haemophilus influenzae [15], 0.25 µg/mL (≈ 0.549 µM) against Haemophilus influenzae [9], 0.5 µg/mL (≈ 1.1 µM) in the assay on Haemophilus influenzae [12] and 0.06 µg/mL (≈ 0.132 µM) in the assay on Haemophilus influenzae [13].

Consider `CO/N=C(\C(=O)N[C@@H]1C(=O)N2C(C(=O)O)=C(COC(N)=O)CS[C@H]12)c1ccco1` [CEFUROXIME], for which the Activity in the assay with Haemophilus influenzae [8] came to 45.4%; in the assay on Haemophilus influenzae [10], 20%; in the assay on Haemophilus influenzae [11] it was 48.8%; in the assay with Haemophilus influenzae [14] it was 19%. For the same compound, the MIC50 amounted to 4 µg/mL with Haemophilus influenzae [15], 1 µg/mL (≈ 2.36 µM) against Haemophilus influenzae [9], 4 µg/mL (≈ 9.43 µM) in the assay with Haemophilus influenzae [12] and 2 µg/mL (≈ 4.71 µM) against Haemophilus influenzae [13]. In addition, the MIC90 with Haemophilus influenzae [15] came out at 16 µg/mL; against Haemophilus influenzae [9], 8 µg/mL (≈ 18.9 µM); in the assay on Haemophilus influenzae [12], 16 µg/mL (≈ 37.7 µM); against Haemophilus influenzae [13], 8 µg/mL (≈ 18.9 µM).
